Measurements from ChEMBL document CHEMBL5678816, “A Next-Generation TRK Kinase Inhibitor Overcomes Acquired Resistance to Prior TRK Kinase Inhibition in Patients with TRK Fusion-Positive Solid Tumors” (Cancer Discov, 2017).
Active and inactive are the calls of the source. No cut-off for these calls is given here.

Key:
[1] = Oral bioavailability in monkey at 10 mg/kg administered as 20% hydroxypropyl-beta-cyclodextrin formulation by LC-MS analysis; type: ADME, organism-based, Macaca mulatta; details: rhesus monkey, in vivo
[2] = system: NIH3T3; assay: In vivo inhibition of […] in nu/nu NCr mouse implanted with mouse NIH3T3 cells harboring extracellular domain deleted […] assessed as reduction in […] phosphorylation at 60 mg/kg, po administered once daily for 3 days and measured after 2 hrs post last dose by ELISA; type: functional, organism-based; details: time 3.0 day
[3] = system: LC2; assay: Inhibition of cell proliferation in human LC2 cells upto 10 umol/L incubated for 72 hrs by DAPI staining based analysis; type: functional; details: dose <= 10.0 µmol/L
[4] = system: 5637; assay: Inhibition of cell proliferation in human 5637 cells upto 10 umol/L incubated for 72 hrs by DAPI staining based analysis; type: functional; details: dose <= 10.0 µmol/L
[5] = system: MDA-MB-231; assay: Inhibition of cell proliferation in human MDA-MB-231 cells upto 10 umol/L incubated for 72 hrs by DAPI staining based analysis; type: functional; details: dose <= 10.0 µmol/L
[6] = system: MDA-MB-468; assay: Inhibition of cell proliferation in human MDA-MB-468 cells upto 10 umol/L incubated for 72 hrs by DAPI staining based analysis; type: functional; details: dose <= 10.0 µmol/L
[7] = system: AU565; assay: Inhibition of cell proliferation in human AU565 cells upto 10 umol/L incubated for 72 hrs by DAPI staining based analysis; type: functional; details: dose <= 10.0 µmol/L
[8] = system: SNB-19; assay: Inhibition of cell proliferation in human SNB-19 cells upto 10 umol/L incubated for 72 hrs by DAPI staining based analysis; type: functional; details: dose <= 10.0 µmol/L
[9] = system: BT-20; assay: Inhibition of cell proliferation in human BT-20 cells upto 10 umol/L incubated for 72 hrs by DAPI staining based analysis; type: functional; details: dose <= 10.0 µmol/L
[10] = system: OE19; assay: Inhibition of cell proliferation in human OE19 cells upto 10 umol/L incubated for 72 hrs by DAPI staining based analysis; type: functional; details: dose <= 10.0 µmol/L
[11] = Cmax in pediatric patient with recurrent ETV6-NTRK3-rearranged infantile fibrosarcoma at 20 mg administered twice a day as liquid formulation for 1 day by LC-MS/MS analysis; type: ADME; details: human, in vivo
[12] = Cmax in pediatric patient with recurrent ETV6-NTRK3-rearranged infantile fibrosarcoma at 60 mg administered twice a day as liquid formulation for 8 day by LC-MS/MS analysis; type: ADME; details: human, in vivo
[13] = Cmin in adult patient with recurrent LMNA-NTRK1 rearranged colorectal cancer at 50 mg administered twice a day as powder-in-capsule or liquid formulation for 1 day and measured 10 hrs post dose by LC-MS/MS analysis; type: ADME; details: human, in vivo, po, read-out: Cmin
[14] = Cmin in adult patient with recurrent LMNA-NTRK1 rearranged colorectal cancer at 100 mg administered twice a day as powder-in-capsule or liquid formulation for 15 day and measured 10 hrs post dose by LC-MS/MS analysis; type: ADME; details: human, in vivo, po, read-out: Cmin
[15] = biological target: Serine/threonine-protein kinase NLK (Homo sapiens) (UniProt Q9UBE8); assay: Inhibition of NLK (unknown origin) at 1 uM in presence of ATP relative to control; values are per cent of control
[16] = biological target: Tyrosine-protein kinase receptor UFO (Homo sapiens) (UniProt P30530); assay: Inhibition of Axl (unknown origin) at 1 uM in presence of ATP relative to control; values are per cent of control
[17] = biological target: Tyrosine-protein kinase CSK (Homo sapiens) (UniProt P41240); assay: Inhibition of CSK (unknown origin) at 1 uM in presence of ATP relative to control; values are per cent of control
[18] = biological target: Proto-oncogene tyrosine-protein kinase Src (Homo sapiens) (UniProt P12931); assay: Inhibition of SrC (unknown origin) at 1 uM in presence of ATP relative to control; values are per cent of control
[19] = biological target: Tyrosine-protein kinase Yes (Homo sapiens) (UniProt P07947); assay: Inhibition of Yes (unknown origin) at 1 uM in presence of ATP relative to control; values are per cent of control
[20] = biological target: Ribosomal protein S6 kinase alpha-5 (Homo sapiens) (UniProt O75582); assay: Inhibition of MSK1 (unknown origin) at 1 uM in presence of ATP relative to control; values are per cent of control
[21] = biological target: NUAK family SNF1-like kinase 1 (Homo sapiens) (UniProt O60285); assay: Inhibition of ARK5 (unknown origin) at 1 uM in presence of ATP relative to control; values are per cent of control
[22] = biological target: Myosin light chain kinase, smooth muscle (Homo sapiens) (UniProt Q15746); assay: Inhibition of MYLK (unknown origin) at 1 uM in presence of ATP relative to control; values are per cent of control
[23] = biological target: Serine/threonine-protein kinase BRSK1 (Homo sapiens) (UniProt Q8TDC3); assay: Inhibition of BrSK1 (unknown origin) at 1 uM in presence of ATP relative to control; values are per cent of control
[24] = biological target: MAP kinase-interacting serine/threonine-protein kinase 2 (Homo sapiens) (UniProt Q9HBH9); assay: Inhibition of MKNK2 (unknown origin) at 1 uM in presence of ATP relative to control; values are per cent of control
[25] = biological target: Ephrin type-A receptor 4 (Homo sapiens) (UniProt P54764); assay: Inhibition of EphA4 (unknown origin) at 1 uM in presence of ATP relative to control; values are per cent of control
[26] = biological target: Ephrin type-B receptor 4 (Homo sapiens) (UniProt P54760); assay: Inhibition of EphB4 (unknown origin) at 1 uM in presence of ATP relative to control; values are per cent of control
[27] = biological target: Interleukin-1 receptor-associated kinase 1 (Homo sapiens) (UniProt P51617); assay: Inhibition of IRAK1 (unknown origin) at 1 uM in presence of ATP relative to control; values are per cent of control
[28] = biological target: Calcium/calmodulin-dependent protein kinase type 1D (Homo sapiens) (UniProt Q8IU85); assay: Inhibition of CAMK1d (unknown origin) at 1 uM in presence of ATP relative to control; values are per cent of control
[29] = organism: Homo sapiens; assay: Inhibition of MKK4_m (unknown origin) at 1 uM in presence of ATP relative to control; values are per cent of control
[30] = biological target: Insulin-like growth factor 1 receptor (Homo sapiens) (UniProt P08069); assay: Inhibition of IGF-1R (unknown origin) at 1 uM in presence of ATP relative to control; values are per cent of control

Chain of Tyrosine-protein kinase Yes (Homo sapiens) (P07947 2-543 limits assumed): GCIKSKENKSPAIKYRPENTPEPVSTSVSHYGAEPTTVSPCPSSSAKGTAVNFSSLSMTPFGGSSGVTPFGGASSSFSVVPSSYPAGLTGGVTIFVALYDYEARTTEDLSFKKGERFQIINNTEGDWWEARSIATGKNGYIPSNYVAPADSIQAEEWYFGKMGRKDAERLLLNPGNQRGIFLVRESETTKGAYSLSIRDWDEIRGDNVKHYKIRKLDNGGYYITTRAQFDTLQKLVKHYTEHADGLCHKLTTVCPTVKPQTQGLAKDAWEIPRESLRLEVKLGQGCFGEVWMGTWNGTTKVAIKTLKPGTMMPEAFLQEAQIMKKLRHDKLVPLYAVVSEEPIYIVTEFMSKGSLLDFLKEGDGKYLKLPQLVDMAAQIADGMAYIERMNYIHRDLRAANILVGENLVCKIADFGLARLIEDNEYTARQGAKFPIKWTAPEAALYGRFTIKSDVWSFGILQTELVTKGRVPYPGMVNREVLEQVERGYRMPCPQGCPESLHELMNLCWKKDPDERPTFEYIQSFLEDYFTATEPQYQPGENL
Chain of Ephrin type-A receptor 4 (Homo sapiens) (P54764 whole entry): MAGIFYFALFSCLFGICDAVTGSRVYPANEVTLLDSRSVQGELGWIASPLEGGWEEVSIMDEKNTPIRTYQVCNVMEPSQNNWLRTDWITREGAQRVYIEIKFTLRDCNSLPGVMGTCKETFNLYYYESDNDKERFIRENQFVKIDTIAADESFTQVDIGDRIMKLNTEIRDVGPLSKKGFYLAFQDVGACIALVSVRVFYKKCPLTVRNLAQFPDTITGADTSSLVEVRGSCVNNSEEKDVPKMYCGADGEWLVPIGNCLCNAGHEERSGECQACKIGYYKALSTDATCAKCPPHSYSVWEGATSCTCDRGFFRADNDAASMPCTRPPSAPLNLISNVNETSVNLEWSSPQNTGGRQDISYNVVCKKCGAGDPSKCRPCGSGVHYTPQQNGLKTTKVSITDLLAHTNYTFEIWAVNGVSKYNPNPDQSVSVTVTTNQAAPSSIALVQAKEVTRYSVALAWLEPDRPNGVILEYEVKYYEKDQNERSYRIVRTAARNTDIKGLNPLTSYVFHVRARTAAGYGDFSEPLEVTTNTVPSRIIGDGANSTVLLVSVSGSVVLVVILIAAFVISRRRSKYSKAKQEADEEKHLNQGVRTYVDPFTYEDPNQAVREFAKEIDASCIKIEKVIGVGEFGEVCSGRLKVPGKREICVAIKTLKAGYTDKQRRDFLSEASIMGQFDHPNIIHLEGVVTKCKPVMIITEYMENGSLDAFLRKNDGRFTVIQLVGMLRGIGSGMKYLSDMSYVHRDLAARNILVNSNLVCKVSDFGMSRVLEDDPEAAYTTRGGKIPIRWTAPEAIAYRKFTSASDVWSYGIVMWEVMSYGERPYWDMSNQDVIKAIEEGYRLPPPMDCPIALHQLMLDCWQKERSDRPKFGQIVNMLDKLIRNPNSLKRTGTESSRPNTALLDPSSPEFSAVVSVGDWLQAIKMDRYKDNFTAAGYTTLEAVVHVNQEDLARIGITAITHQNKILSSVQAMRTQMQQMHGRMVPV
Chain of Ephrin type-B receptor 4 (Homo sapiens) (P54760 whole entry): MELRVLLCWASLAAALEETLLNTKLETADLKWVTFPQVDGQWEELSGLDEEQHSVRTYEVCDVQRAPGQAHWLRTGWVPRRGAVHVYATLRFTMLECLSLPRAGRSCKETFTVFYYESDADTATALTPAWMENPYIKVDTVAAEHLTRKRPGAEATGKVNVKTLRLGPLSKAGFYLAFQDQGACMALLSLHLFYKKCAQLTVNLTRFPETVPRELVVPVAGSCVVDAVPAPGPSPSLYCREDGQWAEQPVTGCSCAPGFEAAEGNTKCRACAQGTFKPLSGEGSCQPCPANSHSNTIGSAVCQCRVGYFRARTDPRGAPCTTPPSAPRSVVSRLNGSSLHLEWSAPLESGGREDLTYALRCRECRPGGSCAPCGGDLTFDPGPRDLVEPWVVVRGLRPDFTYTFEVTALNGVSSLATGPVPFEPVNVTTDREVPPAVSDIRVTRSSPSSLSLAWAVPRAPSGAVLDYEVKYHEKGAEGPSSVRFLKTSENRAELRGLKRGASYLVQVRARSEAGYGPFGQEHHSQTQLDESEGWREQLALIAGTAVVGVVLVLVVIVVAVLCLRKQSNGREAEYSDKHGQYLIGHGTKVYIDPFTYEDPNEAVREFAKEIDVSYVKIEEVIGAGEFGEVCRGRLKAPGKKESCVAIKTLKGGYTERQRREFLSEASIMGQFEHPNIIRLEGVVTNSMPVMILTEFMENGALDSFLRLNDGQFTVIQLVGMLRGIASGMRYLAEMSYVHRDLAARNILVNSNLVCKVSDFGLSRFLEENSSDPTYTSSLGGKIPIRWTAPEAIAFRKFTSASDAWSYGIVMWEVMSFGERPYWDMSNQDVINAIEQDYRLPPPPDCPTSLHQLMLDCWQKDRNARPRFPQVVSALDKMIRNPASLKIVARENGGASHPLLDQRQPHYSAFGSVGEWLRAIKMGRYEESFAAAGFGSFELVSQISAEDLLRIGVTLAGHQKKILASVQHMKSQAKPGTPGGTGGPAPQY
Chain of NUAK family SNF1-like kinase 1 (Homo sapiens) (O60285 whole entry): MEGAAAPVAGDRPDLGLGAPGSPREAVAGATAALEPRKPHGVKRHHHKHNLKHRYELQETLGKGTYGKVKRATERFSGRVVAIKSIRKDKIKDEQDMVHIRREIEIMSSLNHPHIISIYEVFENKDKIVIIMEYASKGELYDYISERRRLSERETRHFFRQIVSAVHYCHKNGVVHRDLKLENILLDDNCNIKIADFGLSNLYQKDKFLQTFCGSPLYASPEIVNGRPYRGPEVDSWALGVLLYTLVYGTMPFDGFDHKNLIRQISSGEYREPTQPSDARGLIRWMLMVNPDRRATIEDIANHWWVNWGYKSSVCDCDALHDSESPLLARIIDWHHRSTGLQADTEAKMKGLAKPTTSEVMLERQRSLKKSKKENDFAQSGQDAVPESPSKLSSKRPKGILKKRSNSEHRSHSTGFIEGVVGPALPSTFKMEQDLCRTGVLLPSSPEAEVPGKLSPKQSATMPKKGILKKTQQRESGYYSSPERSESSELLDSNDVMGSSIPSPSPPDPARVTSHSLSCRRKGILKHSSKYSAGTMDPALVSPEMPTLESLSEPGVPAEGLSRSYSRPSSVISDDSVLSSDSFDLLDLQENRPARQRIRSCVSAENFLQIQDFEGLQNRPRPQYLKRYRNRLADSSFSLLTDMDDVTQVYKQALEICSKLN
Chain of Interleukin-1 receptor-associated kinase 1 (Homo sapiens) (P51617 whole entry, looked up): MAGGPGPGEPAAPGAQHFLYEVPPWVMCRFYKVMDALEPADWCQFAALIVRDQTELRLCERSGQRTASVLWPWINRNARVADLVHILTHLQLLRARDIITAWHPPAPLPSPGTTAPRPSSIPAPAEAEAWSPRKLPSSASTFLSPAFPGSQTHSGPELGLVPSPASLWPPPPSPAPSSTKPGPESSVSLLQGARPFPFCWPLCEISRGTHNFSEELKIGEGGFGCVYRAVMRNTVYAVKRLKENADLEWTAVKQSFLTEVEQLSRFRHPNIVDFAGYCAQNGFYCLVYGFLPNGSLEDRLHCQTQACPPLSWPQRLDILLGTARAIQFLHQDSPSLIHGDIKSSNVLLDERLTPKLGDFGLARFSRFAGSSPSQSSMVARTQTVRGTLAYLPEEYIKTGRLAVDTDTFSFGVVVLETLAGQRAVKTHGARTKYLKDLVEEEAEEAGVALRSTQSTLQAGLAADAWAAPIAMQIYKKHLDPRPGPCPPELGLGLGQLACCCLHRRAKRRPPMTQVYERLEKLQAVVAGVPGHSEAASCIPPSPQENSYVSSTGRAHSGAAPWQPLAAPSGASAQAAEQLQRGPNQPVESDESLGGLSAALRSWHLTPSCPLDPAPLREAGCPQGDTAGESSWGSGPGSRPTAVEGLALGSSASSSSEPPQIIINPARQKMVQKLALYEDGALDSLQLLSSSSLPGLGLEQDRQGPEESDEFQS
Chain of Ribosomal protein S6 kinase alpha-5 (Homo sapiens) (O75582 whole entry, looked up): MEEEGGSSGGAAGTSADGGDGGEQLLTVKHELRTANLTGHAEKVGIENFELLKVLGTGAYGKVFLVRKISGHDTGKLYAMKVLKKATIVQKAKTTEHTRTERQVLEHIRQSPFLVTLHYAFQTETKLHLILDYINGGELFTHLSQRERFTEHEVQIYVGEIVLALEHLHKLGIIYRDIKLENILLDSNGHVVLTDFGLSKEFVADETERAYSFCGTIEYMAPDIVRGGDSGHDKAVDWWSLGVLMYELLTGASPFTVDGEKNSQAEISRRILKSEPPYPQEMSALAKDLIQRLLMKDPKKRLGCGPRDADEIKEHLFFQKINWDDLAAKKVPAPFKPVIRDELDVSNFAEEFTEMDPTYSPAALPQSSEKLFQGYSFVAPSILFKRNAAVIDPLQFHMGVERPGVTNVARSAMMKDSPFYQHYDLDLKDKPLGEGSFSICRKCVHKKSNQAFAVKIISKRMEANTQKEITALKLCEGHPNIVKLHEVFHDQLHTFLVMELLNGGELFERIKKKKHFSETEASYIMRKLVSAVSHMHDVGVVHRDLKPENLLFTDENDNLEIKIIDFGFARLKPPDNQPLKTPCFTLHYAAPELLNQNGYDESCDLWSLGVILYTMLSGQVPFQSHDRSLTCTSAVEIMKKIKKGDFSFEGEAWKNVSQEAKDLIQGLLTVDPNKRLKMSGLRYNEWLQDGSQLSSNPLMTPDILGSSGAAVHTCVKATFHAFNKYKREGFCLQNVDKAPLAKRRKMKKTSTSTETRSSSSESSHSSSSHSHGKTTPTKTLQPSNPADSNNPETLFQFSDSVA
Chain of Calcium/calmodulin-dependent protein kinase type 1D (Homo sapiens) (Q8IU85 whole entry, looked up): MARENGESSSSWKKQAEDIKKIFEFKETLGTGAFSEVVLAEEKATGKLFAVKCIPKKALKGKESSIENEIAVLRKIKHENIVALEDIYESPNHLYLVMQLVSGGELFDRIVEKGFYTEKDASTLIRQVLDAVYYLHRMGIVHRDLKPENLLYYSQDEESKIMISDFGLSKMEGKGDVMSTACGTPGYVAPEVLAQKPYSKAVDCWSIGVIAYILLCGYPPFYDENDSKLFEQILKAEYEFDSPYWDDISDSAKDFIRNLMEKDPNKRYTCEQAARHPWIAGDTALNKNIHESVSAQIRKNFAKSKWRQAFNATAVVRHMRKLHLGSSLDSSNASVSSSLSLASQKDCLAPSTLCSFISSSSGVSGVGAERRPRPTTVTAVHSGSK

bioavailability [1]: 2%
Cmax [11]: 143 ng/mL
Cmax [12]: 415 ng/mL
concentration at 34 h [13]: 1.86 ng/mL
concentration at 370 h [14]: 7.78 ng/mL
residual activity [15]: 110%
residual activity [16]: 90%
residual activity [17]: 112%
residual activity [18]: 102%
residual activity [19]: 82%
residual activity [20]: 131%
residual activity [21]: 98%
residual activity [22]: 109%
residual activity [23]: 108%
residual activity [24]: 100%
residual activity [25]: 102%
residual activity [26]: 116%
residual activity [27]: 106%
residual activity [28]: 116%
residual activity [29]: 108%
residual activity [30]: 96%
Compound: C[C@@H]1CCc2ncc(F)cc2[C@H]2CCCN2c2ccn3ncc(c3n2)C(=O)N1 [SELITRECTINIB]
inhibition [2]: Active
inhibition [3]: inactive
inhibition [4]: inactive
inhibition [5]: inactive
inhibition [6]: inactive
inhibition [7]: inactive
inhibition [8]: inactive
inhibition [9]: inactive
inhibition [10]: inactive
